This test relates to CEM cells HIV-1 protection, formazan growth assay. Briefly: NCI AIDS Antiviral Assay. As to conditions: for IC50: measured here: growth of uninfected CEM cells. In a few lines:
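Protection of CEM cells against HIV-1 measured as cell growth via soluble formazan read-out, with five concentrations tested on both infected and uninfected cells; failure to protect may reflect toxicity.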

Several values for one entry are separate records, joined by “and”; a condition that tells them apart may be missing. Equal values may be shown once. Activity calls are given as the source filed them.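 How the source made its calls: active means compounds giving half or more protection of infected cells from virus-caused growth loss, again on retest; inactive means the rest.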

Regarding `O=C1C=Cc2ncccc2C1=O`, the EC50 (as a rule, the concentration giving half of the maximal effect) was greater than 1580 µM and the concentration for half-maximal inhibition (IC50) (usually the midpoint of a concentration-inhibition curve) stood at 5.5 µM.

As for `O=C(O)CCNC(=O)c1ccccc1SC(=O)CCCC[n+]1ccccc1`, the EC50 is 21.9 µM and the IC50 was greater than 200 µM.

In the case of `[N-]=[N+]=C1N=CN=C1c1ncn[nH]1`, the EC50 was greater than 200 µM and the IC50 worked out at 4.07 µM. Consider `Cn1cc(NC(=O)Nc2cc(C(=O)Nc3cc(C(=O)Nc4ccc(S(=O)(=O)O)c5cccc(S(=O)(=O)O)c45)n(C)c3)n(C)c2)cc1C(=O)Nc1cc(C(=O)Nc2ccc(S(=O)(=O)O)c3cccc(S(=O)(=O)O)c23)n(C)c1`, for which the outcome was inactive. As for `O=C(O)C1C2c3ccccc3C(c3ccccc32)C1C(=O)O` (stereo not drawn), the EC50 is greater than 851 µM and the IC50 is greater than 851 µM. For the compound `CCN(CC)C(=O)c1cccc2c(OC)ccc(OC)c12`, the outcome was inactive.

For the compound `CCN(CC)C(=S)[S-].CCN(CC)C(=S)[S-].O=C(O)CC([S-])C(=O)O.[Fe+3]` (stereo not drawn), the EC50 was greater than 100 µM and the half-maximal inhibitory concentration (IC50) is 38.9 µM. On to `COc1c(Cl)cc(S(=O)OC)cc1Cl` (stereo not drawn), for which the outcome was inactive.

On to `COc1c(OCc2ccccc2)c(OCc2ccccc2)cc(COS(=O)(=O)O)c1-c1c(COS(=O)(=O)O)cc(OCc2ccccc2)c(OCc2ccccc2)c1OC`, for which the EC50 was greater than 1.58 µM and the IC50 was greater than 1.58 µM. Take `COc1cccc(/C=C2\SC(=S)N(/C=C3\C(=O)Oc4ccccc4C3=O)C2=O)c1O`: the EC50 is greater than 200 µM and the IC50 worked out at 70.8 µM. Take `CC(=O)C(=Cc1ccc(Br)cc1)C(C)=O`: the EC50 was greater than 51.3 µM and the IC50 turned out to be 27.5 µM. Regarding `CN(C)CC(=O)N1CC(COS(C)(=O)=O)c2ccc(O)cc21` (stereo not drawn), the EC50 is greater than 20 µM and the IC50 is 3.47 µM. As for `O=C1CCC2CCOc3ccc(O)c1c32` (stereo not drawn), the outcome was inactive. As to `COc1cc2c(cc1OC)C(c1ccccc1CCCCl)=NCC2`, the EC50 was greater than 200 µM and the IC50 came out at 75.9 µM. In the same order, the values of `Nc1cccc2nnccc12` are greater than 200 µM and greater than 200 µM. In the same order, the values of `CC(C)(C)C1=CC(=N/N=c2\scc(-c3ccccc3)n2-c2ccccc2)C=C(C(C)(C)C)C1=O` are greater than 15.1 µM and greater than 15.1 µM. Regarding `COc1cccc2c1-c1nc(N)c3c(OC)cccc3c1C2=O`, the EC50 was 74.1 µM and the half-inhibitory concentration (IC50) is greater than 200 µM. For `COc1ccc(-c2cc3ccccc3oc2=O)cc1OC` the same measures were greater than 200 µM and 41.7 µM. As to `c1ccc2c(c1)nc1n2CC2(CS1)CSc1nc3ccccc3n1C2`, the result was inactive.

As to `O=C(/C(=C/c1ccc(Br)cc1)c1ccccc1)c1ccccc1`, the EC50 is greater than 14.5 µM and the IC50 was greater than 14.5 µM.

Consider `O=C1OC2CCCC1O2` (stereo not drawn), for which the EC50 is greater than 200 µM and the IC50 was greater than 200 µM.

On to `CCc1cc[c]([Sb](=[O])([OH])[OH])cc1`, for which the result was inactive. As for `COC(=O)c1cc(Cc2cc(Br)cc(C(=O)OC)c2O)cc(Cl)c1O`, the EC50 was greater than 100 µM and the IC50 was greater than 100 µM. As to `CNCc1c2c(O)c3c(O)c(C)c4c(c3c1O)C(=O)C(C)(O/C=C/C(OC)C(C)C(OC(C)=O)C(C)C(O)C(C)C(O)C(C)/C=C/C=C(/C)C(=O)N2)O4` (stereo not drawn), the EC50 is greater than 200 µM and the IC50 amounted to 16.6 µM.

Regarding `O=[N+]([O-])c1ccc2c(c1)c1nn2CCCCOc2nn(c3ccc([N+](=O)[O-])cc23)CCCCO1`, the EC50 is greater than 200 µM and the IC50 was greater than 200 µM. Turning to `O=C(CNc1ccccn1)Nn1cnc2ccc(S(=O)(=O)Nc3ccccn3)cc2c1=O`, the EC50 was greater than 200 µM and the 50% inhibitory concentration (IC50) is greater than 200 µM.

For `Cc1cc(-c2ccccc2)oc(=O)c1NC(=O)c1cnccn1`, the EC50 was greater than 200 µM and the IC50 amounted to 141 µM. `O=C1Oc2ccccc2[C@@H]2[C@H]1[C@@H]1C(=O)Oc3ccccc3[C@@H]12`: the EC50 is greater than 46.8 µM and the concentration for half-maximal inhibition (IC50) was greater than 46.8 µM. Take `Nc1nc2ncn(CC(O)COC(=O)c3ccccc3)c2c(=O)[nH]1` (stereo not drawn): the EC50 was greater than 21.9 µM and the IC50 was greater than 21.9 µM. In the case of `O=C(/C=C\c1ccc(O)c(O)c1)OC1C(O)CC(OC(=O)/C=C/c2ccc(O)c(O)c2)(C(=O)O)CC1O` (stereo not drawn), the EC50 was greater than 200 µM and the IC50 is 30.2 µM. For `Cc1ccc(S(=O)(=O)/C(C#N)=C/NC(=S)Nc2ccccc2)cc1` the same measures were 170 µM and greater than 200 µM. Consider `Clc1ccc(SSc2ccc(Cl)cn2)nc1`, for which the EC50 was greater than 200 µM and the half-inhibitory concentration (IC50) stood at 20.4 µM. Regarding `Cc1cc(C23OC4COC(C)(C)OC4C2OC(C)(C)O3)nc2ccccc12` (stereo not drawn), the EC50 was greater than 200 µM and the IC50 was determined as 102 µM. For `Cc1oc2c(c1C)S(=O)(=O)C(C#N)=C(N(C)C)N2`, the EC50 was greater than 200 µM and the 50% inhibitory concentration (IC50) was greater than 200 µM. With `O=C(NCCc1c(-c2ccccc2)[nH]c2ccccc12)C(F)(F)C(F)(F)F`, the EC50 was greater than 200 µM and the IC50 came to 25.7 µM.

For `NC(=S)N/N=C(\CC1OC(=O)c2ccccc21)c1ccc(Cl)cc1` (stereo not drawn), the EC50 is greater than 83.2 µM and the IC50 was 7.24 µM.

For `CC(=O)O[C@@H]1C(C2CCCCC2)C=[N+]([O-])O[C@@H]1OC1CCCC1(c1ccccc1)c1ccccc1` (stereo partly drawn), the EC50 is greater than 200 µM and the IC50 is 1.7 µM. Turning to `CC1C/C(=C\c2ccc(O)c(O)c2)C(=O)/C(=C/c2ccc(O)c(O)c2)C1` (stereo not drawn), the EC50 was greater than 200 µM and the IC50 is 10 µM. In the same order, the values of `Cc1nc2c3c(ncn2n1)Oc1c(c(-c2ccccc2)nn1-c1ccccc1)C3c1ccc(Cl)cc1` (stereo not drawn) are greater than 200 µM and greater than 200 µM. As for `O=NN1C(c2ccccc2)CNC(=O)CC1c1ccccc1` (stereo not drawn), the result was inactive.

Turning to `CCN(CC)CC/C=C1\c2ccccc2Sc2ccc(Cl)cc21`, the outcome was inactive. For the compound `N=c1nc(N)nc2c3ccccc3nnn12`, the EC50 is greater than 24.5 µM and the concentration for half-maximal inhibition (IC50) was greater than 24.5 µM. For the compound `CCOC(=O)c1c(C)n(C)c2c1nnc1ccccc12`, the EC50 is greater than 200 µM and the IC50 came to 129 µM. For `O=C(O)N1CCc2c(sc3ccccc23)C1`, the EC50 was greater than 95.5 µM and the IC50 was greater than 95.5 µM.

As to `O=C1C2=C(CC3C(C2)C3(Br)Br)C(=O)C2=C1CC1C(C2)C1(Br)Br` (stereo not drawn), the EC50 is greater than 9.33 µM and the 50% inhibitory concentration (IC50) was greater than 9.33 µM.

As to `CCOC(=O)c1[nH]c(Br)c(-c2ccc(OC)c(OC)c2)c1Br`, the EC50 was greater than 200 µM and the IC50 was 0.0631 µM. `CC(C(=O)c1ccccc1)C1(O)C(=O)Nc2ccccc21` (stereo not drawn): the outcome was inactive. Turning to `[O-][n+]1ccccc1CCN(O)Cc1ccccc1`, the EC50 was greater than 200 µM and the IC50 was greater than 200 µM. Consider `C/C(=N/NC(=S)Nc1ccccc1C)c1ccccn1`, for which the EC50 was greater than 0.2 µM and the half-inhibitory concentration (IC50) worked out at 0.0692 µM. Take `Cn1ccc(C(=O)NCCOCCNC(=O)c2ccn(C)c(=O)c2O)c(O)c1=O`: the EC50 is greater than 50.1 µM and the IC50 is greater than 50.1 µM.

Consider `CC1=C[P+](Cc2ccccc2)(c2ccccc2)CC1` (stereo not drawn), for which the IC50 is 186 µM and 72.4 µM.

In the case of `O=[N+]([O-])c1ccc(COc2cccc3cccnc23)cc1`, the EC50 was greater than 200 µM and the IC50 was determined as 2.14 µM.

On to `COc1ccc(C2OCCN2C)cc1` (stereo not drawn), for which the EC50 is greater than 200 µM and the IC50 is greater than 200 µM. As to `NC(C(=O)O)C(CC(=O)O)c1ccccc1` (stereo not drawn), the EC50 is greater than 200 µM; the IC50 is 112 µM and > 200 µM.
